Values of other authors as cited in patent US20220257562A1, “METHOD FOR IMPROVING ENDOMETRIOSIS AND METHOD FOR PRODUCING A MATERIAL USED THEREFOR” (NICHIMO CO., LTD., priority 2017, published 2022).

Key:
ERβ = ERβ (Homo sapiens, UniProt Q92731); conditions: Non-Patent Literature 23
MCF-7 = conditions: for effect on tamoxifen: MCF-7 / mammary tumors, Non-patent Literature 15, 17; for cell proliferation of estrogen-dependent breast cancer cells (MCF-7): Non-patent Literature 14, 16

ERβ, sequence (Q92731 whole entry, species assumed): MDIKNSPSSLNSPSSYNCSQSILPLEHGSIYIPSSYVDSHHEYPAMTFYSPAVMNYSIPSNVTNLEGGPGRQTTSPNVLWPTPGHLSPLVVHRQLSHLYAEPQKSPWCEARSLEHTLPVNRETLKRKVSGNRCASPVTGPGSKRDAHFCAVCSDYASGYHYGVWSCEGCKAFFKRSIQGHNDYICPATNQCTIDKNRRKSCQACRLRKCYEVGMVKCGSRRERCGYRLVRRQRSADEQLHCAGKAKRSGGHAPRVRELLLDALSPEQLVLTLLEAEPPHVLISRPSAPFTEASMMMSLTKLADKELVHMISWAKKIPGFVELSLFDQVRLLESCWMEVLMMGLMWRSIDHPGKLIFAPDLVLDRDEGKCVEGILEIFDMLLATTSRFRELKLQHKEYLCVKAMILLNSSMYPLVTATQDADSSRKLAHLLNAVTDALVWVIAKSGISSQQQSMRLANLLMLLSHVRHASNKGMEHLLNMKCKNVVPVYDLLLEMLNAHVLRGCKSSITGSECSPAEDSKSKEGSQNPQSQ

O=c1c(-c2ccc(O)cc2)coc2cc(O)ccc12 [daidzein]
binding to ERβ (ERβ): binds weakly
effect on tamoxifen (MCF-7): improved the therapeutic effect of tamoxifen
cell proliferation of estrogen-dependent breast cancer cells (MCF-7) (MCF-7): suppressed the proliferation

O=c1c(-c2ccc(O)cc2)coc2cc(O)cc(O)c12 [Genistein, genistein]
effect on tamoxifen (MCF-7): attenuates the inhibitory effect of tamoxifen
cell proliferation of estrogen-dependent breast cancer cells (MCF-7) (MCF-7): promotes cell proliferation
